Legend:
[1] = molecular target: T1, NF-Yd/YA (reconstituted NF-Y trimer with YA3) (Homo sapiens, UniProt P25208+Q13952); assay: EMSA inhibition of DNA binding; settings: 40 nM protein, 20 nM Cy5 HSP70 CCAAT probe, pH 7.5, 5 mM MgCl2, 30 °C; suramin 50 and 100 µM
T1 construct: gene NFYB; NF-Yd (NF-YB 49-141/NF-YC 27-120, His-tag cut) mixed with separately purified NF-YA aa 239-347, C-terminal His-tag; E. coli BL21(DE3); with Nuclear transcription factor Y subunit alpha

[2] = molecular target: T2, NF-Yd (NF-YB/NF-YC histone fold domain dimer, YB/YCmd) (Homo sapiens, UniProt P25208+Q13952); assay: ITC; type: binding
T2 construct: gene NFYB; minimal histone fold domains, NF-YB aa 49-141 with N-terminal 6His (thrombin-cleaved), NF-YC aa 27-120; coexpressed in E. coli BL21(DE3)
T2 sequence (P25208 51-143): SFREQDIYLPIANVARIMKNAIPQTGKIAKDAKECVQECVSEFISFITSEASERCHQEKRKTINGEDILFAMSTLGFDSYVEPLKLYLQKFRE
T2 sequence (Q13952 27-120): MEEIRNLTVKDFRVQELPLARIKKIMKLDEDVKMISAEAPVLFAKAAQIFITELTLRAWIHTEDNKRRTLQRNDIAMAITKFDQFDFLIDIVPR

[3] = molecular target: T3, NF-Yt (NF-Ymd, minimal domain NF-Y trimer) (Homo sapiens, UniProt P25208+Q13952); assay: STD NMR; EMSA inhibition of DNA binding; settings: STD NMR: 25 µM protein, 1 mM suramin, 10 mM Tris-DCl pH 8, 150 mM NaCl, 25 °C; EMSA: 40 nM protein, 20 nM HSP70 CCAAT probe, pH 7.5, 30 °C
T3 construct: gene NFYB; minimal domains NF-YB 49-141, NF-YC 27-120, NF-YA 262-332 with C-terminal 6His (thrombin-cleaved); coexpressed in E. coli BL21(DE3); with Nuclear transcription factor Y subunit alpha
T3 sequence (P23511 262-332 partner, one chain of several): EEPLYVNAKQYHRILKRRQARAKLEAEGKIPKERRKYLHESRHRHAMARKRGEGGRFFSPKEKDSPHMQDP

T1 sequence (P23511 239-347 partner, one chain of several): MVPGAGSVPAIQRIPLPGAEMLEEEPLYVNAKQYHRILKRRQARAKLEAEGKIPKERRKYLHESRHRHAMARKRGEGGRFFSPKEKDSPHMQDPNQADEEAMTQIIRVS

With Cc1ccc(C(=O)Nc2ccc(S(=O)(=O)O)c3cc(S(=O)(=O)O)cc(S(=O)(=O)O)c23)cc1NC(=O)c1cccc(NC(=O)Nc2cccc(C(=O)Nc3cc(C(=O)Nc4ccc(S(=O)(=O)O)c5cc(S(=O)(=O)O)cc(S(=O)(=O)O)c45)ccc3C)c2)c1 [suramin] the “EMSA inhibition of DNA binding” value [1] was “suramin addition substantially decreased the formation of NF-Y-bound DNA complexes, in a dose-dependent manner”, the Kd [2] was 2900 ± 700 nM and the “STD NMR; EMSA inhibition of DNA binding” value [3] was “demonstrates the interaction of the compound with both the dimer and the trimer”.

Reference: PMC7692634, “Structural Basis of Inhibition of the Pioneer Transcription Factor NF-Y by Suramin” (Cells, 2020)
